Measurements published in US20250154201A1, “PEPTIDE BINDING TO MESOTHELIN, AND USE THEREOF” (KYUNGPOOK NATIONAL UNIVERSITY INDUSTRY-ACADEMIC COOPERATION …, priority 2022, published 2025).

How the values were obtained:
mesothelin = mesothelin (Homo sapiens, UniProt Q13421); assay: immunofluorescence binding to HEK-293T cells transiently transfected with mesothelin-GFP plasmid; type: cell-based; set-up: GFP; host or cells: HEK293T; settings: 10 μM and 25 μM MSLN-pep, 25 μM Ctrl-pep; transfected and untransfected HEK-293T
Sequence of mesothelin (Q13421 with tags, fused parts or gaps): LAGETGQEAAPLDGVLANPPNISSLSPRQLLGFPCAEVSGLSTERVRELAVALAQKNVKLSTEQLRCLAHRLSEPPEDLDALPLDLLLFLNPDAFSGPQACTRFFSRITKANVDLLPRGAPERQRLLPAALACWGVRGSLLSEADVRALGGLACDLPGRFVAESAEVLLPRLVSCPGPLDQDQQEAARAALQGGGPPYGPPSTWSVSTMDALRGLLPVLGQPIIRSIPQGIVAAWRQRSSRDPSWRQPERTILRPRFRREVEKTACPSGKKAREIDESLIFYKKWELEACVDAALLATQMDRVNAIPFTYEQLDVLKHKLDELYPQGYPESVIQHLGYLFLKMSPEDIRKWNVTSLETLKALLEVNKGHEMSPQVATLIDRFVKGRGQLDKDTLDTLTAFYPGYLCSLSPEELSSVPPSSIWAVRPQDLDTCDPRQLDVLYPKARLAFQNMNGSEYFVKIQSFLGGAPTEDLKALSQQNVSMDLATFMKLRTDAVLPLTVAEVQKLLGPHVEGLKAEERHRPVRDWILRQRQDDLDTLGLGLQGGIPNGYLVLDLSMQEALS
Description: HEK293T cells were transiently transfected using Lipofectamine 3000 (Invitrogen) in 6-well plates according to the manufacturer's protocol. Prior to transfection, 2×10^5 cells were cultured in 6-well plates for 24 hours. To transfect one well, 7.5 μl of Lipofectamine 3000 reagent was diluted in 250 μl of Opti-MEM (Invitrogen) reagent, followed by a reaction at room temperature for 5 minutes. 5 μg of mesothelin-expressing plasmid pCMV6-AC-GFP vector DNA was diluted in 250 μl of Opti-MEM (Invitrogen) reagent, followed by a reaction at room temperature for 5 minutes. The mixture of two solutions were then mixed and reacted at room temperature for 10 minutes (a total of 500 μl per well). The old medium of the cells was immediately removed, and a 500 μl of DNA-transfection reagent-mixture was added to the cells before transfer to the incubator. After 24 hours of culture, the medium was again replaced with a pre-warmed growth medium containing serum. Culture was performed for 48 hours, and the newly inserted protein was expressed in the cells.
(§1) Taken together, it was found via immunofluorescence analysis that MSLN-pep specifically binds to mesothelin.

[1] = system: PANC-1 and AsPC-1 cell lines; assay: analysis of invasion (Matrigel-coated 24-transwell); type: cell-based, human; settings: 24 hours
Description: PANC-1 and AsPC-1 cell lines were cultured using DMEM and RPMI-1640 media with 10% FBS added in 100 mm dish each at a concentration of 2×10^6 cells per well. After 24 hours, all media in 100 mm dishes were removed and replaced with DMEM and RPMI-1640 media without addition of 10% FBS to inhibit migratability of cell lines so as to be in a starvation state. After 24 hours, 300 μg/mL of Matrigel was coated on the upper chamber of 24-Transwell. Afterwards, PANC-1 and AsPC-1 cell lines were cultured in the upper chamber at a concentration of 2×10^4 cells in a 100 mm dish, 10% FBS was added to the lower chamber for the experimental group, and 0% FBS was added to the lower chamber for the control group to identify migratability. 3% ACN, 200 μM control peptide (Ctrl-pep), MSLN-pep 25. For 50, 100, and 200 μM groups, each cell line was cultured together in the upper chamber of the 24-Transwell, and 10% FBS was treated in the lower chamber. Each group was cultured at 37° C. for 24 hours, and then the cells were photographed (original magnification, ×100) for each concentration of peptides. Cells were stained with crystal violet (0.1%), and Image J, a computer program, was used for quantitative evaluation.
After pancreatic cancer cell lines PANC-1 and AsPC-1 were cultured in 24-transwells, all cells were starved for 24 hours to inhibit cell growth, and then treatment was performed in divided groups of 10% FBS, 0% FBS, 3% ACN+10% FBS, 200 μM NSSSVDK+10% FBS, 25 μM MSLN-pep+10% FBS, 50 μM MSLN-pep+10% FBS, 100 μM MSLN-pep+10% FBS, and 200 μM MSLN-pep+10% FBS.

[2] = system: mesothelin-expressing pancreatic cancer cell lines AsPC-1, PANC-1, BxPC-3, and MiaPaCa-2; assay: immunofluorescence binding of MSLN-pep to pancreatic cancer cell lines; type: cell-based, human; settings: 10 μM and 25 μM MSLN-pep
From the text: as §1

in vitro = settings: human
Description: Pancreatic cancer cell line AsPC-1 cells (5×10^3 cells/well in 96-well plates) were cultured in 1% serum medium with various concentrations of MSLN-pep peptide that specifically binds to mesothelin, NSSSVDK control peptide (Ctrl-pep), R7-KLA peptide that induces apoptosis, Abraxane, gemcitabine, and PBS at 37° C. for 24 and 48 hours. Afterwards, CCK-8 Kit (Dojindo, Kumamoto, Japan) reagent was treated, and a reaction was carried out at 37° C. for 2 hours to evaluate cytotoxicity.
To determine whether there is cytotoxicity when MSLN-pep binds specifically to mesothelin, the peptide was treated to the pancreatic cancer cell line AsPC-1 at concentrations of 0, 25, 50, 100, and 200 μM, and cell viability was checked for 24 and 48hours.

[3] = system: pancreatic cancer cell lines PANC-1 and AsPC-1; assay: internalization of FITC-labeled peptides (confocal microscopy); type: cell-based, human; settings: 25 μM and 50 μM MSLN-pep, 50 uM NSSSVDK; 1 and 2 hours
Description: To observe the intracellular distribution of the internalized FITC-labeled peptide MSLN-pep, pancreatic cancer cell lines AsPC-1 and PANC-1 cells (2.5×10^5 cell counts) were dispensed on a 4-well chamber slide. After complete adhesion, the cell culture medium was replaced with a fresh medium containing FITC-labeled peptides (25 μM, 50 μM), […], and the cells were washed with PBS 3 times for 3˜5 minutes, followed by fixation (4% paraformaldehyde; PFA) for 5 minutes. Thereafter, washing with PBS was performed. After staining the nucleus with DAPI and mounting on a glass slide with a fading reagent, internalization of FITC-labeled MSLN-pep was observed under confocal microscopy.

AsPC-1 tumor = assay: tumor homing of peptides in mice; type: in vivo, nude mice; settings: TAMRA-labeled, intravenous, 6 hours circulation
Description: Pancreatic cancer cell line AsPC-1 cells (1×10^7 cells) were implanted under the skin of nude mice, left until the tumor size reaches about 100 mm^3, and then intravenously injected with 100 μl of 1 mM peptides labeled with a TAMRA fluorescence reagent, followed by circulation for 6 hours. Tumors and organs (liver, lung, and kidney) were separated and treated with paraformaldehyde for fixation and preparation of cryosections. The prepared cryosections were observed under a fluorescence microscope.
Pancreatic cancer cell line AsPC-1 cells (1×10^7 cells) were implanted under
the skin of nude mice, left until the tumor size reached about 100 mm^3, and then intravenously injected with MSLN-pep labeled with the TAMRA fluorescence reagent and control peptide (Ctrl-pep), followed by circulation for 6 hours. The tumor and control organs were separated, and cryosections were prepared, followed by observation under a fluorescence microscope.

**Q.** For CC[C@H](C)[C@@H]1NC(=O)[C@H]([C@@H](C)O)NC(=O)[C@@H](N)CSSC[C@@H](C(=O)O)NC(=O)[C@H]([C@@H](C)O)NC(=O)[C@H](CC(C)C)NC(=O)[C@H](CO)NC(=O)[C@H](Cc2c[nH]c3ccccc23)NC(=O)[C@H](CC(C)C)NC1=O [MSLN-pep], which “specific binding (immunofluorescence)” value (mesothelin) is on record?
**A.** bound only to the mesothelin-expressing portion

**Q.** What about the “invasiveness compared to treatment of 10% FBS” value ([1]; 25 μM + 10% FBS) of the same molecule?
**A.** no difference in the migratability and invasiveness

**Q.** And the invasiveness ([1]; 50, 100 and 200 μM + 10% FBS)?
**A.** suppressed with increasing concentrations of MSLN-pep

**Q.** What about the “specific binding (immunofluorescence)” value [2] of the same molecule?
**A.** specific binding of MSLN-pep even at 10 μM with the further increase at 25 μM

**Q.** And the viability at 200 µM (in vitro)?
**A.** ~80%

**Q.** What about the “binding and internalization into cells” value [3] of the same molecule?
**A.** internalization into cells occurs in proportion to the increase in the concentration

**Q.** And the “targeting to control organs (fluorescence microscopy of cryosections)” value (AsPC-1 tumor; liver, lungs, kidneys)?
**A.** barely observed

**Q.** What about the “targeting to tumor tissue (fluorescence microscopy of cryosections)” value (AsPC-1 tumor; tumor tissue) of the same molecule?
**A.** observed at a higher level compared to the control
